# Residues, ends and D or L forms follow the SMILES beside them. *: point of attachment. Boc = CC(C)(C)OC(=O)*; Bn = c1ccc(C*)cc1
row,Structure (SMILES),melting point [°C]
1,COc1cc(C(C)=O)cc(OC)c1OC(C)=O,145
2,COn1nnc2cc(Cn3ccnc3)ccc21,94.3
3,Cc1oc(C(N)=O)c(C)c1-c1nc2ccc(C(=O)c3ccccc3)cc2[nH]1,143 to 146
4,CC(C)(CO)C1CCN(CC#Cc2cc(C(F)(F)F)cc(C(F)(F)F)c2)CC1,85 to 87
5,Nc1ccc(C(=O)c2ccccc2)c(F)c1,133 to 135
6,NC1=NC=C(c2ccc(C(F)(F)F)cc2)c2ccccc2C1,167 to 170
7,O=C1COc2ccc(Br)cc2C(=O)C1,110 to 112
8,Cc1nnc2n1-c1ccc(Br)cc1C(c1ccccc1F)=NC2,213 to 214
9,CN(C)C=C1CC(=O)c2ccccc2NC1=O,203 to 205
10,CCCCCCCCCCCCCCC(CCCCC(=O)O)CCCCC(=O)O,48 to 50
11,COc1ccc(Oc2nc(Oc3ccc(OC)c(F)c3)nc(Oc3ccc(OC)c(F)c3)n2)cc1F,> 210
12,CN1C(=O)N(Cc2cc(C(F)(F)F)cc(C(F)(F)F)c2)C(=O)C1=Cc1c[nH]c2ccccc12,145 to 147
13,N=c1sc2cc(OC(F)(F)F)ccc2n1CCSc1ncccn1,110
14,OCCC1(CCO)CCN(Cc2ccccc2)CC1,75 to 78
15,CNc1nc(CO)c(-c2ccncc2)s1,216 to 218
16,COc1ccc2oc(-c3ccc(O)cc3C)cc2c1,149 to 154
17,CNC(=O)C1(CCCCCCCCCCCCC2(C(=O)NS(C)(=O)=O)CC2)CC1,111 to 112
18,CCCCCc1c(/C=C/C(=O)O)n(C)c2cc(OC)ccc12,157 to 158
19,c1cc(Cn2ncc3c(N4CCNCC4)ncnc32)ccn1,121
20,CC(C)C(NC(=O)OC(C)(C)C)C(=O)OC1CC(n2cc(C=CBr)c(=O)[nH]c2=O)OC1CCl (stereo not drawn),87 to 88
21,CCCCC1(CCCC)c2cc(Br)ccc2-c2ccc(Br)cc21,117 to 118
22,CCOC(=O)c1c(C)nc(N2CCCCC2)c2nnn(CC)c12,45 to 47
23,Cc1c(F)c(Oc2cc(C(F)(F)F)nn2C)nc(Oc2cc(C(F)(F)F)nn2C)c1F,101
24,CC(C)n1nc(-c2cccc(Cl)c2)c2ncccc2c1=O,80 to 81
25,Cc1cc2oc(C(=O)O)cc(=O)c2c2c1-c1ccccc1C(C)(C)O2,231 to 232

row,Structure (SMILES),melting point [°C]
1,Clc1ccc(C#CCBr)cc1,41 to 43
2,CSc1nsc(N)c1C#N,188 to 189
3,Cc1cc(Br)ccc1-n1ccc(O)n1,208 to 210
4,N#Cc1c(C(F)(F)F)oc2cc(O)ccc2c1=O,255 to 257
5,CC1C(=O)N(c2ccc(S(C)(=O)=O)cc2)N=C1N (stereo not drawn),239 to 240
6,CCCc1nc2c(N)nc3cc(OCc4ccoc4)ccc3c2s1,170 to 171
7,CCCc1nc2c(N)nc3ccccc3c2n1CCOCCCS(=O)(=O)C(C)C,176 to 177
8,Cc1cc(N)cnc1Oc1ccc(Cl)c(C(F)(F)F)c1,92 to 94
9,Cn1cc(C2=C(c3ccsc3)C(=O)NC2=O)c2ccccc21,211 to 212
10,O=C1c2cccnc2N(N2CCCCCC2)C2=NCCN12,217 to 219
11,COC(=O)CN(C(=O)CSc1nc2c(F)c(F)cc(F)c2s1)c1ccccc1,145 to 147
12,COc1ccc(C=Cc2c(Cl)cncc2Cl)c2c1CC1(CCCC1)O2,99 to 101
13,COc1ccc2c(c1)/C(=N\NC(N)=O)C(=O)N2CCN(C(C)C)C(C)C,157 to 159
14,CCOC(=O)c1c(N)nc(-c2ccc([N+](=O)[O-])cc2)c([N+](=O)[O-])c1C(=O)OCC,148 to 150
15,COc1cc2c(cc1Br)-c1cc3c(n1CC2)C(=O)N(C(C)(C)C)CCC(C)(C)C3,175 to 177
16,NCCNc1nc(N)nc(-c2cc(Cl)ccc2Cl)n1,152 to 153
17,O=C(c1cc(-c2ccccc2)ccn1)N(O)Cc1ccccc1,160 to 165
18,COc1ccc(C(C[N+](=O)[O-])SC(=S)N(C)C)cc1 (stereo not drawn),86 to 89
19,CCOC(=O)C1N=c2ccsc2=CN1N (stereo not drawn),139 to 141
20,CC(=O)Nc1nc(N(C(C)=O)C(C)=O)c(CCC=O)c(=O)[nH]1,164 to 168
21,Cc1nc2c(Cl)cc(Cl)cc2c(=O)n1C1CCC(=O)NC1=O (stereo not drawn),238 to 240
22,CCOCc1nc2c(N)nc3cccnc3c2n1CC1(O)CC1,178 to 179
23,COc1cccc(OC)c1C(=O)P1(=O)Oc2ccccc2-c2ccccc21 (stereo not drawn),96 to 98
24,Fc1cccc(F)c1-c1nc(/C=C/c2ccc(-c3ccc(OC(F)(F)F)cc3)cc2)no1,122 to 123

# Other lines, results leading:
row,melting point [°C],Structure (SMILES)
1,97 to 99,O=C(OCc1ccccc1)N1CCC(c2nc(CO)c(-c3ccc(Cl)cc3)o2)CC1
2,194 to 197,O=C(/C=C/c1cc(O)c(O)c([N+](=O)[O-])c1)CCCCC(=O)Nc1ccc(C(F)(F)F)cc1
3,205 to 207,CC(=O)c1c(-c2ccncc2)[nH]c(-c2ccncc2)c1CO
4,207 to 211,CNC(=O)CCC1CCN(Cc2cnc3cc(NC(=O)c4ccc(-c5ccc(F)cc5)cc4)c(C)cc3c2)CC1
5,82 to 83,CCOC(=O)c1cncc(OC)c1CCCOc1cccnc1Oc1cccc(Cl)c1
6,123 to 127,CC(=O)SCC(Cc1ccccc1)C(=O)Nc1c(Cl)cccc1C(=O)O (stereo not drawn)
7,> 300,CCOc1nc(N2CCNCC2)nc2c1sc1nc(-c3ccc(C(O)CO)cc3)nc(C)c12 (stereo not drawn)
8,150 to 151,C=CCOC(=O)C(C)(C)Cc1c(SC(C)(C)C)c2cc(O)ccc2n1Cc1ccc(Cl)cc1
9,269 to 271,COc1cc2c(N)nc(N3CCN(C(=O)C4COc5ccccc5O4)CC3)nc2c(OC)c1OC (stereo not drawn)
10,232 to 233,CCCC(CC)Nc1cc(C(=O)O)ccc1N1C(=O)CCC1(CO)CO (stereo not drawn)
11,291 to 293,CC(c1ccccc1)c1ccc(-c2cnn3c(O)ncnc23)cc1 (stereo not drawn)
12,149 to 150,Cc1ccc(C(=O)NC(Cc2ccc(C(F)(F)F)cc2)C(=O)c2ccc(F)cc2)c2ccccc12 (stereo not drawn)
13,223 to 226,COc1cc(CC(=O)Nc2ccc(C3(CC(=O)O)CCCC3)cc2)ccc1NC(=O)Nc1ccccc1C
14,151 to 154,COCC(=O)c1cc(-c2ccc(S(C)(=O)=O)cc2)n(-c2ccc(F)cc2)n1
15,158 to 160,O=C(O)COc1ccc(SCc2ccc(OCc3cc(Cl)ccc3Cl)cc2)c2c1CCC2
16,179 to 180,O=C1N(Cc2ccc(Cl)cc2)c2ccc(Br)cc2C1(O)c1ccc2c(c1)OCO2 (stereo not drawn)
17,> 260,COc1cc2c(cc1OC)CN(CCCOc1ccc(NC(=O)c3cccc(C(=O)c4ccccc4)c3)cc1)CC2
18,> 250,NS(=O)(=O)c1ccc(NN=C2C(=O)Nc3cc(Br)ccc32)cc1
19,42 to 44,O=C(CCC(O)c1ccccc1)N1CCCCC1 (stereo not drawn)
20,90 to 93,NCCc1ccc(CCNS(=O)(=O)c2ccc(Cl)cc2)cc1
21,67 to 69,CC(C)=CCCC(C)=CCOc1ccc(C(=O)NCCc2ccccn2)cc1
22,81 to 82,COCOc1ccc2sc(C=O)cc2c1
23,182 to 184,CC(=O)NCc1ccc2[nH]cc(C=O)c2c1
24,134 to 135,COc1cccc(CC(=O)O)c1OCCCc1cn(-c2ccc(C(F)(F)F)cn2)nc1-c1ccccc1
25,108 to 110,CC(C)CC[C@H](O)[C@H](CC1CCCCC1)NC(=O)[C@H](Cc1c[nH]cn1)NC(=O)[C@H](Cc1ccccc1)NC(=O)N1CCOCC1

row,melting point [°C],Structure (SMILES)
1,72 to 74,CCc1nn(C2CCCC2)c2cc(-c3ccccc3)ccc12
2,205 to 208,CN1CC(=O)N(c2cc(Cc3n[nH]c(=O)c4ccccc34)ccc2F)C(=O)C1
3,212 to 214,CCN1CCc2cc(Nc3ncc(Cl)c(Nc4ccc(N5CCOCC5)cc4OC)n3)c(OC)cc2CC1=O
4,182 to 184,Nc1cc(OCc2ccccc2)c(C(=O)O)cc1Cl
5,136 to 138,Cc1cc(NC(=O)Oc2ccc([N+](=O)[O-])cc2)cc(C(F)(F)F)c1
6,60 to 64,CCCCCCCCCCOc1ccc(-c2nc(-c3c(Cl)cccc3Cl)nn2C)cc1
7,46 to 47,Nc1c(Cl)cc(C(O)CNCCCCCC(=O)OCCOc2ccccc2)cc1Cl (stereo not drawn)
8,138 to 140,COc1ccc(/C=N/Nc2ccccc2)cc1OC1CCCC1
9,233 to 235,COc1ccc(Nc2ncc3cc(-c4c(Cl)cccc4Cl)c(=O)n(C)c3n2)cn1
10,194,COC(=O)C1(Cc2ccc(Br)cc2)CC(=O)CN1C(=O)Nc1cc(Cl)cc(Cl)c1 (stereo not drawn)
11,90 to 94,CC(C)CC(NC(=O)C(Cc1ccc(OCc2ccccc2)cc1)NC(=O)OC(C)(C)C)C(=O)O (stereo not drawn) (Boc-Tyr(Bn)-Leu-OH; configuration not given here)
12,138 to 139,Cc1cc2c(nc1OCCCCN1CCN(c3cccc(Cl)c3Cl)CC1)NC(=O)CC2
13,174 to 175,CC(=O)c1ccc(-c2ccccc2NC(=N)N(C)C)cc1
14,74 to 75,CCOc1ccc(C(c2ccc(C(C)(C)C)cc2)C(C)Cl)cc1 (stereo not drawn)
15,125 to 128,CCOC(=O)N1CCN(C(=O)Oc2ccc([N+](=O)[O-])cc2)CC1
16,100,CCOC(=O)C(C)(C)Oc1ccc(-c2ccc(CCNC(=O)c3ccccc3)cc2)cc1
17,157 to 158,CC1(C)OC[C@H]([C@@H](CS(=O)(=O)c2ccc(Oc3ccc(Cl)cc3)cc2)N(O)C=O)O1
18,120,CC(SCc1cc2cc(C(F)(F)F)ccc2n1S(=O)(=O)c1ccccc1)C(=O)O (stereo not drawn)
19,137 to 144,Cc1ccc(S(=O)(=O)Nc2cccc3ccc(Oc4ccc5nc(COc6ccc(CC7SC(=O)NC7=O)cc6)n(C)c5c4)cc23)cc1 (stereo not drawn)
20,188 to 190,CCc1oc2ccccc2c1C(=O)NCc1ccc2c(Br)c(O)ccc2c1
21,164 to 166,C=C(C)COc1ccc(C(=O)C=Cc2cccnc2)c(O)c1
22,177 to 179,CC(=O)Nc1ccc(OCC2CCN(CC(O)COc3cccc4c3CCN4C=O)CC2)cc1 (stereo not drawn)
23,143 to 144,NC(=O)Nc1ccc(CCOCc2ccccc2-c2ccccc2)cc1
24,159 to 164,O=C(Nc1ccc(-n2nc(C3CC3)cc2C2CC2)cc1)c1c(Cl)cncc1Cl

# From a melting point compilation (Tetko et al.; mined from patent text by program, amines drawn as free bases though some values may be those of a salt)
